Measurements: article PMC7041630 (Experimental neurology, 2018)

Assays:
LRRK2 = details: ref Fell et al., 2015, Henderson et al., West; cited from earlier work
[1] = Liver microsome stability assay; assay type: in vitro ADME, macaque; details: 2 μM compound, 0.5 mg mL−1 microsomes, with NADPH, one hour
Drug properties = assay type: physicochemical
WT-LRRK2 = assay type: in vivo, rat; details: non-transgenic rats; for phospho-LRRK2 in total protein lysates from kidney: higher concentrations of inhibitor; for total LRRK2 protein in the brain: higher concentrations, three days; for total LRRK2 protein in the lung (normalized to HSC70): three days of drug treatment
[2] = test system: pT73-Rab10 in mouse macrophages; assay: Ex vivo pT73-Rab10 western blot, mouse macrophages; assay type: cell-based; details: 100 nM, two hours
[3] = test system: pT73-Rab10 in human neutrophils; assay: Ex vivo pT73-Rab10 western blot, human neutrophils; assay type: cell-based; details: 100 nM, two hours
[4] = Single-dose IV/PO pharmacokinetics in rats; assay type: in vivo, rat; details: for bioavailability: oral dosing, 1% methylcellulose vehicle
[5] = test system: pT73-Rab10 in human PBMCs; assay: Ex vivo pT73-Rab10 western blot, human PBMCs; assay type: cell-based; details: 100 nM, two hours
[6] = In-diet dosing, plasma drug levels in rats; assay type: in vivo, rat; details: chow up to 1050 mg kg−1
[7] = molecular target: recombinant human WT-LRRK2 (Homo sapiens, UniProt Q5S007); assay: LanthaScreen LRRKtide phosphorylation assay, WT-LRRK2; assay type: biochemical; details: LanthaScreen at Km,app(ATP)
Chain of recombinant human WT-LRRK2 (Q5S007 whole entry): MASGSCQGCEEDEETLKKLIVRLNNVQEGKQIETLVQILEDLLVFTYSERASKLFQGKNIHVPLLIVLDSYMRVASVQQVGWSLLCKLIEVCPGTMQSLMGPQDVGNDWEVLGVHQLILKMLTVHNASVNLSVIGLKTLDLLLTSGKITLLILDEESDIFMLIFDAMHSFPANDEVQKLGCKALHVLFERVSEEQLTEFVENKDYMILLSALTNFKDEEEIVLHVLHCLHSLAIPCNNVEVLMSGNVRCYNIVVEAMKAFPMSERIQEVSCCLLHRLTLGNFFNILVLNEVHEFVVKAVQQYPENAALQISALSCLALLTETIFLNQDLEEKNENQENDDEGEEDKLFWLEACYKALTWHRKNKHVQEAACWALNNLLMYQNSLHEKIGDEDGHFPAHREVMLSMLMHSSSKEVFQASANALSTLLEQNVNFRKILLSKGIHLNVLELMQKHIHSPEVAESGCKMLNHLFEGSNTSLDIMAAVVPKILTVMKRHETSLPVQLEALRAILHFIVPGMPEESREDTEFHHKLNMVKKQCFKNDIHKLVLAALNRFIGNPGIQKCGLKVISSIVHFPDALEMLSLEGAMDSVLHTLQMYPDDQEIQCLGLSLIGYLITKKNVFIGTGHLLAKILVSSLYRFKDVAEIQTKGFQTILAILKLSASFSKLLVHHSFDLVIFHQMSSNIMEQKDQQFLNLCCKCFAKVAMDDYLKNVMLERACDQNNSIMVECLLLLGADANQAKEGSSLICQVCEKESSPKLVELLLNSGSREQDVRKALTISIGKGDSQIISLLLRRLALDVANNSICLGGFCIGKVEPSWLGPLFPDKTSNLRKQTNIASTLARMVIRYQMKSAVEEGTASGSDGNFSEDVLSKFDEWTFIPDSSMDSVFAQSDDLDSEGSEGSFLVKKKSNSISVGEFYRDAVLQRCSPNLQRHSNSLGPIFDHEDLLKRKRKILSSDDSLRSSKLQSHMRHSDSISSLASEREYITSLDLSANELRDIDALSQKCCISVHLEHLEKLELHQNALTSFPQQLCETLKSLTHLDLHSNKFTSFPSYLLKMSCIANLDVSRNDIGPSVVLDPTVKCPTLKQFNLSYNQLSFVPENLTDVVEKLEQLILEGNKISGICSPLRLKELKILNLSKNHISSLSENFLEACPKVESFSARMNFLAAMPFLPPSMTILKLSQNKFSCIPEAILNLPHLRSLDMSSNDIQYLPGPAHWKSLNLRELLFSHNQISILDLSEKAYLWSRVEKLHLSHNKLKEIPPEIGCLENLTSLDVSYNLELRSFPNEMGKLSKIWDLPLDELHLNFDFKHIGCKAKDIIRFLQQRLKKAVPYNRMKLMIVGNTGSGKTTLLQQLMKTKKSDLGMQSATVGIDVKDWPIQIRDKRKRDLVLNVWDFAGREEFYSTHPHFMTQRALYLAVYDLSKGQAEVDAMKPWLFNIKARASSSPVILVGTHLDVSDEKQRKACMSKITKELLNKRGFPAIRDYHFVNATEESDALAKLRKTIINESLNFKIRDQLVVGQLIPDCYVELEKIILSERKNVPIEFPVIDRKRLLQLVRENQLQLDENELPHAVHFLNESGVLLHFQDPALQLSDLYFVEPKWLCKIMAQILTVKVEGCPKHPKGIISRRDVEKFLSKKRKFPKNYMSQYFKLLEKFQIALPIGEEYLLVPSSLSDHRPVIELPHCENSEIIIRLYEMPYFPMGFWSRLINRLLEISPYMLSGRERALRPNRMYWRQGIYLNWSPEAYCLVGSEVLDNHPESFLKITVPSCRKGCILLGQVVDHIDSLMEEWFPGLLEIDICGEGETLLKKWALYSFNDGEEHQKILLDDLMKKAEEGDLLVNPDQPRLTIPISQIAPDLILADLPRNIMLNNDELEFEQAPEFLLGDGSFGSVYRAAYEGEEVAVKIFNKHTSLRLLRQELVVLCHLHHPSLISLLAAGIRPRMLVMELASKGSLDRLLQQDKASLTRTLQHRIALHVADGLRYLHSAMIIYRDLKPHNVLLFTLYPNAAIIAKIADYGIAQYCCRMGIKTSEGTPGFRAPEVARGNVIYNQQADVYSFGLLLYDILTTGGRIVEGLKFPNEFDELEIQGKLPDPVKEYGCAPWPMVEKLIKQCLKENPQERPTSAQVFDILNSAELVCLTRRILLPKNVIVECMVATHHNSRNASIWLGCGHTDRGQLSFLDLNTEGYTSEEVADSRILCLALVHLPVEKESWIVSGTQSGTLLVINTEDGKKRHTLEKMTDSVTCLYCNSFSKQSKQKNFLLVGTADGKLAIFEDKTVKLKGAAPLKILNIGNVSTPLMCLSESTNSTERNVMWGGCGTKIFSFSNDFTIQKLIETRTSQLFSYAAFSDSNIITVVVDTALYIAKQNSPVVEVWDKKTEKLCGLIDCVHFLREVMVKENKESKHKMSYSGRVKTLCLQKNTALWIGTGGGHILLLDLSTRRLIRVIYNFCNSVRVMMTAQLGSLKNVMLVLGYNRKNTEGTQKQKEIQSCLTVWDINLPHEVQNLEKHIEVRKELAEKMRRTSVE

| aqueous solubility (Drug properties; compared to PF-360) | brain penetrant [4] | bioavailability [4] | highest plasma concentration achieved with in-diet dosing [6] [nM] | lipophilicity (Drug properties; compared to MLi2) | more potent in blocking LRRKtide phosphorylation than autophosphorylation [7] | brain-to-plasma ratio (total compound) [4] | correlation of plasma to brain concentrations (r) ([4]; total compound) | Compound | binding in vitro (LRRK2) | microsomal stability, compound remaining [1] | phospho-LRRK2 in total protein lysates from kidney (WT-LRRK2) | total LRRK2 protein in the brain (WT-LRRK2) | total LRRK2 protein in the lung (normalized to HSC70) (WT-LRRK2) | pT73-Rab10 signal [2] | pT73-Rab10 signal [3] | pRab10 signal [5] |
| --- | --- | --- | --- | --- | --- | --- | --- | --- | --- | --- | --- | --- | --- | --- | --- | --- |
| poor | ~ 75% | ~ 40% |  |  |  |  |  | C[C@@H]1CN(c2cc(-c3n[nH]c4ccc(OC5(C)CC5)cc34)ncn2)C[C@H](C)O1 [MLi2] | low to sub-nanomolar | no significant concentrations of compound left after one-hour incubation | essentially no phospho-LRRK2 remaining | did not show these trends | did not reduce | virtually eliminated pT73-Rab10 signal | virtually eliminated pT73-Rab10 signal | could not observe a reliable reduction in pRab10 |
|  |  | ~ 40% | ≤ 100 | lower lipophilicity | ~ 1 order of magnitude | 0.48±0.03 | 0.89 | Cn1cc(-c2c[nH]c3ncnc(N4CCOCC4)c23)cc1C#N [PF-360] | low to sub-nanomolar | no significant concentrations of compound left after one-hour incubation | essentially no phospho-LRRK2 remaining | reduce total LRRK2 protein in the brain nearly to the same extent as reducing the amount of phosphorylated LRRK2 protein | did not reduce |  |  |  |
